Laboratory results from paper PMC7031302, “Design and synthesis of new energy restriction mimetic agents: Potent anti-tumor activities of hybrid motifs of aminothiazoles and coumarins” (Scientific Reports, 2020).
Where two headings read alike, the source gives them in different places.

What was measured:
Assay type in all cases: cell-based, Human
HT-29 = assay: MTT cell viability, HT-29; conditions: for IC50: read-out: half-maximal inhibitory concentration (IC50) HT-29
Experimental: (§1) The potential cytotoxicity of 24 candidate compounds was initially evaluated at a single concentration level (5 μM). Then a full dose-response curve was plotted for each compound against different colorectal cancer cell lines (HCT116 and HT-29) by MTT assay after 72 h treatments. 4-hydroxycoumarin, OSU-CG5, and OSU-CG12 were used as positive controls. […] Compounds 9b, 9c, 9f, 9i, 11b, and 11c were selected for further studies to determine the full dose-response survival curves using different concentrations (0.1–20 µM) against CRC cell lines and normal fibroblast cell line (F180) at different time points (Fig. 2A–2F and supplementary material Page S63 and S64).
(§2) Human colorectal carcinoma cell lines (HCT116) and (HT-29) were obtained from the European Collection of Cell Cultures (ECACC, UK). The cell lines were cultured in Roswell Park Memorial Institute medium (RPMI-1640, Sigma-Aldrich-St. Louis, MO, USA) supplemented with 10% fetal bovine serum (Sigma-Aldrich-St. Louis, MO, USA) and 1% penicillin/streptomycin (Sigma-Aldrich- Louis, MO, USA). F180 cell line (Human Normal Fibroblast), was kindly given by professor Ekkehard Dikomey (University Cancer Center, Hamburg University, Hamburg, Germany) and were cultured in Dulbecco’s Modified Eagle’s medium (DMEM, Sigma-Aldrich-St. Louis, MO, USA) supplemented with 10% fetal bovine serum (Sigma-Aldrich-St. Louis, MO, USA) and 1% penicillin/streptomycin (Sigma-Aldrich- Louis, MO, USA). All cell incubations were done at 37 °C in a humidified atmosphere of 5% CO2.
(§3) Cell viability was assessed using, 3-(4,5-dimethylthiazol-2-yl)-2,5-diphenyltetrazolium bromide (MTT) assay as previously described. In summary, cancer cell lines or F180 were seeded in complete medium at the density of 3 × 10^3/well and 5 × 10^3/well respectively in 96 well flat-bottom plates. After 24 h, cells were incubated with the candidate compounds at the indicated concentration for (24, 48 or 72 h). DMSO was used as vehicle control and 4-Hydroxycoumarin was purchased from (Sigma-Aldrich, St. Louis, MO, USA) and Cisplatin from Hospira UK Ltd. At the end of treatment, the media were aspirated from each well and incubated with 200 µL of MTT tetrazolium dye (Sigma-Aldrich, St. Louis, MO, USA) at a final concentration of 0.5 mg/ml for 2 h at 37 °C. The reduced MTT crystals were solubilized in 200 µl/well of DMSO and the absorbance was measured at 570 nm using a microplate reader (Thermo-Scientific, Vantaa, Finland).

HCT116 = assay: MTT cell viability, HCT116; conditions: for IC50: read-out: half-maximal inhibitory concentration (IC50) HCT116
Experimental: as §1, §2, §3

[1] = test system: colorectal cancer cell lines, HCT116 and HT-29; assay: MTT cell viability, colorectal cancer cell lines (summary statements); conditions: for anticancer activities in initial screening, in words: HT-29 and HCT116 cancer cell lines; for IC50: both cell lines, summary statement
Experimental: as §1, §2, §3

[2] = Homo sapiens, HT-29, 72 h, 72 h, MTT assay, mean ± SD (n = 6)
[3] = Homo sapiens, HCT-116, 72 h, 72 h, MTT assay, mean ± SD (n = 6)
[4] = 72 h, MTT assay, mean ± SD (n = 6)

SMILES	IC50 (HT-29; [2]) [µM]	IC50 (HCT116; [3]) [µM]	further results
O=c1cc(O)c2ccccc2o1 [4-Hydroxycoumarin, reference compound]			IC50 (HT-29; Homo sapiens, HT-29, 72 h): > 200 µM; IC50 (HCT116; Homo sapiens, HCT-116, 72 h): > 200 µM
Cc1cc(=O)oc2cc(Nc3nc(-c4ccc(Cl)cc4)cs3)ccc12 [Compound 9c, 7-(4-(4-Chlorophenyl)thiazol-2-ylamino)-4-methyl-2H-chromen-2-one]	0.37 ± 0.077	0.31 ± 0.014	anticancer activities in initial screening, in words [1]: significant anticancer activities; IC50 [1]: < 0.6 µM
CCOc1ccc(-c2csc(Nc3ccc4c(C)cc(=O)oc4c3)n2)cc1 [Compound 9d, 7-(4-(4-Ethoxyphenyl)thiazol-2-ylamino)-4-methyl-2H-chromen-2-one]	3.03 ± 0.0205	3.21 ± 0.88	
COc1cccc(-c2csc(Nc3ccc4c(C)cc(=O)oc4c3)n2)c1 [Compound 9e, 7-(4-(3-Methoxyphenyl)thiazol-2-ylamino)-4-methyl-2H-chromen-2-one]	3 ± 0.159	3.05 ± 0.14	
Cc1cc(=O)oc2cc(Nc3nc(-c4cccc(F)c4)cs3)ccc12 [Compound 9g, 7-(4-(3-Fluorophenyl)thiazol-2-ylamino)-4-methyl-2H-chromen-2-one]	2.91 ± 1.25	3.5 ± 0.93	
Cc1cc(=O)oc2cc(Nc3nc(-c4ccccc4[N+](=O)[O-])cs3)ccc12 [Compound 9h, 4-Methyl-7-(4-(2-nitrophenyl)thiazol-2-ylamino)-2H-chromen-2-one]	> 30	> 30	
CCc1cc(=O)oc2cc(Nc3nc(-c4ccccc4)cs3)ccc12 [Compound 10a, 4-Ethyl-7-(4-phenylthiazol-2-ylamino)-2H-chromen-2-one]	> 30	> 30	
CCc1cc(=O)oc2cc(Nc3nc(-c4ccc(Cl)cc4)cs3)ccc12 [Compound 10c, 7-(4-(4-Chlorophenyl)thiazol-2-ylamino)-4-ethyl-2H-chromen-2-one]	1.3 ± 0.127	3.54 ± 0.53	
CCc1cc(=O)oc2cc(Nc3nc(-c4cccc(OC)c4)cs3)ccc12 [Compound 10e, 4-Ethyl-7-(4-(3-methoxyphenyl)thiazol-2-ylamino)-2H-chromen-2-one]	13.1 ± 1.39	> 30	
CCc1cc(=O)oc2cc(Nc3nc(-c4cccc([N+](=O)[O-])c4)cs3)ccc12 [Compound 10f, 4-Ethyl-7-(4-(3-nitrophenyl)thiazol-2-ylamino)-2H-chromen-2-one]	4.41 ± 1.37	10.3 ± 3.15	
CCc1cc(=O)oc2cc(Nc3nc(-c4ccccc4OC)cs3)ccc12 [Compound 10i, 4-Ethyl-7-(4-(2-methoxyphenyl)thiazol-2-ylamino)-2H-chromen-2-one]	3.96 ± 1.65	13.5 ± 0.2	
CCCc1cc(=O)oc2cc(Nc3nc(-c4ccccc4)cs3)ccc12 [Compound 11a, 7-(4-Phenylthiazol-2-ylamino)-4-propyl-2H-chromen-2-one]	2.13 ± 0.3	6.76 ± 0.28	
CCCc1cc(=O)oc2cc(Nc3nc(-c4ccc(Br)cc4)cs3)ccc12 [Compound 11b, 7-(4-(4-Bromophenyl)thiazol-2-ylamino)-4-propyl-2H-chromen-2-one]	0.25 ± 0.004	0.26 ± 0.016	anticancer activities in initial screening, in words [1]: significant anticancer activities; IC50 [1]: < 0.6 µM
CCCc1cc(=O)oc2cc(Nc3nc(-c4ccc(Cl)cc4)cs3)ccc12 [Compound 11c, 7-(4-(4-Chlorophenyl)thiazol-2-ylamino)-4-propyl-2H-chromen-2-one]	0.33 ± 0.032	0.34 ± 0.0009	anticancer activities in initial screening, in words [1]: significant anticancer activities; IC50 [1]: < 0.6 µM
CCCc1cc(=O)oc2cc(Nc3nc(-c4cccc([N+](=O)[O-])c4)cs3)ccc12 [Compound 11f, 7-(4-(3-Nitrophenyl)thiazol-2-ylamino)-4-propyl-2H-chromen-2-one]	3.66 ± 0.038	> 30	
CCC(CC)CN1C(=O)S/C(=C\c2ccc(O)c(C(F)(F)F)c2)C1=O [OSU-CG5, reference compound]			IC50 (HT-29; [4]): 10.1 ± 0.373 µM; IC50 (HCT116; [4]): 2.85 ± 0.111 µM
N.N.[Cl][Pt][Cl] [cisplatin, Cisplatin, reference compound]			IC50 of cisplatin as a single compound, HT-29 (HT-29; single compound, 72 h MTT): 1.81 µg/mL; IC50 of cisplatin as a single compound, HCT116 (HCT116; single compound, 72 h MTT): 1.93 µg/mL

Further compounds by falling IC50 (HT-29; [2]), results first:

IC50 (HT-29; [2]) [µM]	IC50 (HCT116; [3]) [µM]	SMILES	further results
8.89 ± 0.813	28.6 ± 6.56	CCCc1cc(=O)oc2cc(Nc3nc(-c4cccc(OC)c4)cs3)ccc12 [Compound 11e, 7-(4-(3-Methoxyphenyl)thiazol-2-ylamino)-4-propyl-2H-chromen-2-one]	
3.96 ± 0.014	6.3 ± 0.605	CCCc1cc(=O)oc2cc(Nc3nc(-c4ccccc4[N+](=O)[O-])cs3)ccc12 [Compound 11h, 7-(4-(2-Nitrophenyl)thiazol-2-ylamino)-4-propyl-2H-chromen-2-one]	
2.97 ± 0.2	3.03 ± 2.25	CCc1cc(=O)oc2cc(Nc3nc(-c4ccc(Br)cc4)cs3)ccc12 [Compound 10b, 7-(4-(4-Bromophenyl)thiazol-2-ylamino)-4-ethyl-2H-chromen-2-one]	
2.34 ± 0.615	4.08 ± 2.68	CCc1cc(=O)oc2cc(Nc3nc(-c4cccc(F)c4)cs3)ccc12 [Compound 10g, 4-Ethyl-7-(4-(3-fluorophenyl)thiazol-2-ylamino)-2H-chromen-2-one]	
1.8 ± 0.76	4.08 ± 1.36	CCCc1cc(=O)oc2cc(Nc3nc(-c4cccc(F)c4)cs3)ccc12 [Compound 11g, 7-(4-(3-Fluorophenyl)thiazol-2-ylamino)-4-propyl-2H-chromen-2-one]	
1.68 ± 0.47	4.73 ± 1.93	CCc1cc(=O)oc2cc(Nc3nc(-c4ccccc4[N+](=O)[O-])cs3)ccc12 [Compound 10h, 4-Ethyl-7-(4-(2-nitrophenyl)thiazol-2-ylamino)-2H-chromen-2-one]	
1.54 ± 0.02		Cc1cc(=O)oc2cc(Nc3nc(-c4ccccc4)cs3)ccc12 [Compound 9a, 4-Methyl-7-(4-phenylthiazol-2-ylamino)-2H-chromen-2-one]	anticancer activities in initial screening, in words [1]: significant anticancer activities
0.32 ± 0.017	0.32 ± 0.041	COc1ccccc1-c1csc(Nc2ccc3c(C)cc(=O)oc3c2)n1 [Compound 9i, 7-(4-(2-Methoxyphenyl)thiazol-2-ylamino)-4-methyl-2H-chromen-2-one]	anticancer activities in initial screening, in words [1]: significant anticancer activities; IC50 [1]: < 0.6 µM
